{
  "source": "paper PMC4579270",
  "about": "“Identification and Characterization of an Irreversible Inhibitor of CDK2” (Chemistry & Biology, 2015)",
  "format_in_all_cases": "biochemical",
  "key": {"CDK9-Cyclin T1": {"biological_target": "CDK9-Cyclin T1 (Homo sapiens, UniProt P50750)", "sequence (P50750 whole entry)": "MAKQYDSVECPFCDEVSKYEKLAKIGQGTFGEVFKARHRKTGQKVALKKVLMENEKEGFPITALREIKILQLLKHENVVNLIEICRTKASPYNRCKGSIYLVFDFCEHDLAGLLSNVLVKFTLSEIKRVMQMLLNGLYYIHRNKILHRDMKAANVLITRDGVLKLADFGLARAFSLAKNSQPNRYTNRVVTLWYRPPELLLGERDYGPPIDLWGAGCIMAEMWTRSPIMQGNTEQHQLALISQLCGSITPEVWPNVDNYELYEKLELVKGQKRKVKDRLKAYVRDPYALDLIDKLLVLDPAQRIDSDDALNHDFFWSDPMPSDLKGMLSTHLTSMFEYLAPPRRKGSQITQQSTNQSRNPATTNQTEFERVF", "sequence (O60563 whole entry partner)": "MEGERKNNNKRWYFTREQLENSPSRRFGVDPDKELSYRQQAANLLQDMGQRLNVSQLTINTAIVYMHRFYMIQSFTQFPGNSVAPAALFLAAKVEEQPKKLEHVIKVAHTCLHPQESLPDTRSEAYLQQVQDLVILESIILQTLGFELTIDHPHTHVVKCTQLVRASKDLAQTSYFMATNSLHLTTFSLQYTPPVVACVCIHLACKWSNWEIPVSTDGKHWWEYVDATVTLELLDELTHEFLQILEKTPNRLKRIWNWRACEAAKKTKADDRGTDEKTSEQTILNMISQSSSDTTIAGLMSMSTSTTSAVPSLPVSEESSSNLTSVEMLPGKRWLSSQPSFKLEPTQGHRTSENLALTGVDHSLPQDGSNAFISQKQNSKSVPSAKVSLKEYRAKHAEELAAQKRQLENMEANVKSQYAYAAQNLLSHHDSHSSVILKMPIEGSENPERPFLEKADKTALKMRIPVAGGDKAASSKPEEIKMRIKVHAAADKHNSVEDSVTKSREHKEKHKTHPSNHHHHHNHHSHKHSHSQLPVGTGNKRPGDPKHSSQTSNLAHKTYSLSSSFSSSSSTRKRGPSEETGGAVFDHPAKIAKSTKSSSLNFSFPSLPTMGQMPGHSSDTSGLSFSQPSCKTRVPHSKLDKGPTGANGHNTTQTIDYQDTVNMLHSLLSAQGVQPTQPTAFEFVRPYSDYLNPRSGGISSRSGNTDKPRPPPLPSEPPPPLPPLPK", "experiment": "Dundee protein kinase screen", "settings": "CDK9-Cyclin T1, 1µM; read-out: %Remaining activity at 1µM NU6300", "procedure": "(§1) Prior to determining its cellular activity, we carried out a screen to assess its selectivity against a panel of 131 protein kinases under conditions that would not distinguish between a reversible or irreversible mode of action. […] These 13 kinases and 29 additional kinases, selected for their known sensitivity to other inhibitors within the purine series, were then tested in a modified screening format in which the assay was repeated following a 4-hr pre-incubation (Table S3B). […] However, conformational flexibility around the active site may promote such an interaction with a residue from another part of the structure ([Martin et al., 2012]).\n(§2) Table S3, Related to Figure 4. NCL-0006300 protein kinase selectivity. (A) NU6300 was tested at a single concentration of 1µM against 131 protein kinases present in a Dundee protein kinase screen (Bain et al., 2007). Values given are % activity remaining and are the average of duplicate measurements: 0-25% (red), 26-50% (yellow), 51-80% (black) and above 81% (green). The kinase domain sequences (as defined by UniProt) of […]\n(§3) have a lysine residue at a position close to CDK2 Lys88 or Lys89. However, in the structure of tyrosine-protein kinase BTK (PDB ID: 3GEN) the residue equivalent to CDK2 Asp86 is Cys481 and therefore there is the potential for a covalent adduct to be formed through this side chain. Ephrin type-B receptor 3 (UniProt entry P54753) also encodes a cysteine residue (Cys717) that by sequence alignment would be predicted to be close to the CDK2 lysine pair. (B) Selected kinases were re-tested in the Dundee kinase screen against NU6300 at a single concentration of 0.5 µM both in the standard assay format and following a 4 hour pre-incubation in the presence of NU6300. Kinases which have very low activity after the 4 hour incubation so that results might not be wholly reliable are boxed in salmon. Kinases where the activity after a 4 hour pre-incubation is < 50% that in the standard assay format are highlighted in red."}, "IRAK1": {"biological_target": "IRAK1 (Homo sapiens, UniProt P51617)", "sequence (P51617 whole entry)": "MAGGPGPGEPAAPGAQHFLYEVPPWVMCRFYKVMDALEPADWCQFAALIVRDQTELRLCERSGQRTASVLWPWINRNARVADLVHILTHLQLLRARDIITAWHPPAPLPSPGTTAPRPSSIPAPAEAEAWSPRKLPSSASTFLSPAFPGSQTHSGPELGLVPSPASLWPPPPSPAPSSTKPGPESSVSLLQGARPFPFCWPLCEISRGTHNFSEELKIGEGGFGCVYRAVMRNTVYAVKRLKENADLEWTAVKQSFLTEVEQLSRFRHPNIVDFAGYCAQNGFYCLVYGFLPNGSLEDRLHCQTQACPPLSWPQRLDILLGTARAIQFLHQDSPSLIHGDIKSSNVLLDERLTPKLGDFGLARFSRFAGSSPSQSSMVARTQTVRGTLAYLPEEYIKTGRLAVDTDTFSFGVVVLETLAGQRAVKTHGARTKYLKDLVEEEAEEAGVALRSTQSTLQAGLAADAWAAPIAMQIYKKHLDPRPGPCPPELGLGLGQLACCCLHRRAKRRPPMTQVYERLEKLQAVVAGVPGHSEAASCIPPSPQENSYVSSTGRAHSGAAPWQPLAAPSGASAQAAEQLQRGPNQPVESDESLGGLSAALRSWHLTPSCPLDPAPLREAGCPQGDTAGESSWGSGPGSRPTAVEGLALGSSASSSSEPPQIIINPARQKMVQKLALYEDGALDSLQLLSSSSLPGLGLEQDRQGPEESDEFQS", "experiment": "Dundee kinase screen re-test (standard format and 4 hour pre-incubation)", "settings": "IRAK1, 0.5µM", "procedure": "as §1, §2, §3"}, "NUAK1": {"biological_target": "T1, NUAK1 (Homo sapiens, UniProt O60285)", "T1 sequence (O60285 1-661)": "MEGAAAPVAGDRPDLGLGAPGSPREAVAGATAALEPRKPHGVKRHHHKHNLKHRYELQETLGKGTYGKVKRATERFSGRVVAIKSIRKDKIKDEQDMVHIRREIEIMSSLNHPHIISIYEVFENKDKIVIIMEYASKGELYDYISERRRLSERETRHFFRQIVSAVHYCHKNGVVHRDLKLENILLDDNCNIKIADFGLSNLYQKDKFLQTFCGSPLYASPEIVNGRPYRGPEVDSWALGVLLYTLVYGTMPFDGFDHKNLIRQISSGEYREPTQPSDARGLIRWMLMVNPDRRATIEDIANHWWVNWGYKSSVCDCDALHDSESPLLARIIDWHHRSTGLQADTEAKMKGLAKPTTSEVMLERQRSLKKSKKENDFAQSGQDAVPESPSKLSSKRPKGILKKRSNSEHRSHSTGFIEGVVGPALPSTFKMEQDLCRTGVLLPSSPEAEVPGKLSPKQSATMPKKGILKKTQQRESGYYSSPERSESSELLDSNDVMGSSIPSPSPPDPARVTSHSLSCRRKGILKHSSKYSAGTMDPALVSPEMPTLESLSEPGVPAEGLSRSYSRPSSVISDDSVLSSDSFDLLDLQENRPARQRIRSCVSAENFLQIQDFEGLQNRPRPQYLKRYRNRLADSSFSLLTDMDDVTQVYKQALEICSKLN", "experiment": "Dundee kinase screen re-test (standard format and 4 hour pre-incubation)", "settings": "NUAK1, 0.5µM", "procedure": "as §1, §2, §3"}, "MARK1": {"biological_target": "MARK1 (Homo sapiens, UniProt Q9P0L2)", "sequence (Q9P0L2 whole entry)": "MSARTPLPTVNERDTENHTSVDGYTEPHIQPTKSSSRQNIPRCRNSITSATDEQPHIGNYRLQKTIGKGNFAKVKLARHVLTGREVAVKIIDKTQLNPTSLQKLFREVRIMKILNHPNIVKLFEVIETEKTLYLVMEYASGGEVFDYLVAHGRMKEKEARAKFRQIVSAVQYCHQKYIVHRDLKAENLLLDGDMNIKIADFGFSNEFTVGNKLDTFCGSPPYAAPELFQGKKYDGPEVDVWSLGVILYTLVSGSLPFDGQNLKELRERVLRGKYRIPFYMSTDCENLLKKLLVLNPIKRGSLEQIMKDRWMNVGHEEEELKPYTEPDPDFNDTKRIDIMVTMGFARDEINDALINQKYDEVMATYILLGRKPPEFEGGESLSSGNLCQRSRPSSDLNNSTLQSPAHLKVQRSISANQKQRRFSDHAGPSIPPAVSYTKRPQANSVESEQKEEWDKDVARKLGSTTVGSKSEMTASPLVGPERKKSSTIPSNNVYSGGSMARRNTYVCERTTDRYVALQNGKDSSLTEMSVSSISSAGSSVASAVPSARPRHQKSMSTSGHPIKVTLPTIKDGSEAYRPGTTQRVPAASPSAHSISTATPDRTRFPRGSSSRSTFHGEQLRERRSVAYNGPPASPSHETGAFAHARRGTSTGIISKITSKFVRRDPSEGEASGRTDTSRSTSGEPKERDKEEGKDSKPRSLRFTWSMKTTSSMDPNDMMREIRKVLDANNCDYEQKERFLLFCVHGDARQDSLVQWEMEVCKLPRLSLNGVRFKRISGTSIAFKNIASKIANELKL", "experiment": "Dundee kinase screen re-test (standard format and 4 hour pre-incubation)", "settings": "MARK1, 0.5µM", "procedure": "as §1, §2, §3"}, "MST2": {"biological_target": "T2, MST2 (Homo sapiens, UniProt Q13188)", "T2 sequence (Q13188 1-491)": "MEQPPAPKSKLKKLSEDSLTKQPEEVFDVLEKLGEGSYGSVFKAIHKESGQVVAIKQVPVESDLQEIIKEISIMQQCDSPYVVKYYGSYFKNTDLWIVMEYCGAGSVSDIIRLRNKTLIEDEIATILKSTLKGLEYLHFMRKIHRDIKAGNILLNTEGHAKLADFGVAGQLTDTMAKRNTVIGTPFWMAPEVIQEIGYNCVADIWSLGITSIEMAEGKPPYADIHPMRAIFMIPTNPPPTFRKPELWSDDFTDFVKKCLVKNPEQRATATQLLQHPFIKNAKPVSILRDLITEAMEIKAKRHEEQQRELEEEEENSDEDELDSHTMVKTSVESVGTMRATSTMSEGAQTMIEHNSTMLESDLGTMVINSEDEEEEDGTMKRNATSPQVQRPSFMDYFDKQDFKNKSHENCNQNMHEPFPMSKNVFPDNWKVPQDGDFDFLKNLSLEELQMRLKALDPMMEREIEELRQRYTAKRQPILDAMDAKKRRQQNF", "experiment": "Dundee kinase screen re-test (standard format and 4 hour pre-incubation)", "settings": "for remaining activity at 0.5 µM: MST2, 0.5µM", "procedure": "as §1, §2, §3"}, "Lck": {"biological_target": "Lck (Homo sapiens, UniProt P06239)", "sequence (P06239 whole entry)": "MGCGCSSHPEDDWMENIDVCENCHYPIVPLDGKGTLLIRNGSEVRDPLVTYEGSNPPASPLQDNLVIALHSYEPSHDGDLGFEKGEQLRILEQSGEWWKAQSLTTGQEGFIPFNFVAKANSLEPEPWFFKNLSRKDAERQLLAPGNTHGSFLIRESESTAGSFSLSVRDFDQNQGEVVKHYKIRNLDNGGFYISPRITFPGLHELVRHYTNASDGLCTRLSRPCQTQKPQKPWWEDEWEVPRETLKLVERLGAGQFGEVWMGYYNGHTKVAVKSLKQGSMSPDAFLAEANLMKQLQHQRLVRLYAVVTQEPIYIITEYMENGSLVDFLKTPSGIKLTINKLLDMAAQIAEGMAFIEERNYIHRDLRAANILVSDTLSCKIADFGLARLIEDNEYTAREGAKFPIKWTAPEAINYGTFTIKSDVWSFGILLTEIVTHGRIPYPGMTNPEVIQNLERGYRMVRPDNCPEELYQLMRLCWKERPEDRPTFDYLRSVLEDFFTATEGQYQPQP", "experiment": "Dundee kinase screen re-test (standard format and 4 hour pre-incubation)", "procedure": "as §1, §2, §3"}, "CHK2": {"biological_target": "CHK2 (Homo sapiens, UniProt O96017)", "sequence (O96017 whole entry)": "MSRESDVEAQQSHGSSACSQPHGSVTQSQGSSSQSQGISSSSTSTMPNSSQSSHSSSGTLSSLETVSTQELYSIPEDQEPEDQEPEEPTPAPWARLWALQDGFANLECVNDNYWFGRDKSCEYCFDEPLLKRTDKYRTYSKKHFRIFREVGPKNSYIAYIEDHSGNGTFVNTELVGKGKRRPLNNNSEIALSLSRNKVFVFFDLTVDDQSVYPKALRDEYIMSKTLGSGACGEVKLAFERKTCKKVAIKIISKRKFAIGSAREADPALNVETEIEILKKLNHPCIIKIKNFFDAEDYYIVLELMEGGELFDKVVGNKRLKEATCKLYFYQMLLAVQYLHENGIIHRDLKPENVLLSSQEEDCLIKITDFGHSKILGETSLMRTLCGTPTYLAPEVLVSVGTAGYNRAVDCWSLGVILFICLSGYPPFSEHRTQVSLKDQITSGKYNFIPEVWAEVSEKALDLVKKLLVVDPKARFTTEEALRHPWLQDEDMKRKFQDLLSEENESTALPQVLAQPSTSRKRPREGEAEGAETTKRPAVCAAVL", "experiment": "Dundee kinase screen re-test (standard format and 4 hour pre-incubation)", "settings": "CHK2, 0.5µM", "procedure": "as §1, §2, §3"}, "PAK5": {"biological_target": "PAK5 (Homo sapiens, UniProt Q9P286)", "sequence (Q9P286 whole entry)": "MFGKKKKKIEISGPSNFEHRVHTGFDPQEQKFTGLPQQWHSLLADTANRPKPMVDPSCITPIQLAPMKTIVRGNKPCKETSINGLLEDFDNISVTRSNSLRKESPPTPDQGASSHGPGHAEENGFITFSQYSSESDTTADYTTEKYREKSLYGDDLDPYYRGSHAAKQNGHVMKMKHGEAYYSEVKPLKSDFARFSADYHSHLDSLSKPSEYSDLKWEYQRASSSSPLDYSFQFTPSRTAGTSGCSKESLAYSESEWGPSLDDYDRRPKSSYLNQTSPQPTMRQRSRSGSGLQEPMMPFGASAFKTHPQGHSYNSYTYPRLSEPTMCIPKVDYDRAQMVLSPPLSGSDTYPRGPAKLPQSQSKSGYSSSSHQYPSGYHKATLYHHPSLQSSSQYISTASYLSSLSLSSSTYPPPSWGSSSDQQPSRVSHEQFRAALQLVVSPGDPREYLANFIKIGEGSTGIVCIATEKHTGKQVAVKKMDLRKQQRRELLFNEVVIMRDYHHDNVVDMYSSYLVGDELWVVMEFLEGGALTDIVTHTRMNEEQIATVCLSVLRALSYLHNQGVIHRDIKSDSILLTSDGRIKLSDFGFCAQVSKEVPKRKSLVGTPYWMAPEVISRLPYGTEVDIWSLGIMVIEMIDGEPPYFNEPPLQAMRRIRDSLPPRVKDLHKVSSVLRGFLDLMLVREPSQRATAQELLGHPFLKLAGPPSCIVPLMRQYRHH", "experiment": "Dundee kinase screen re-test (standard format and 4 hour pre-incubation)", "settings": "PAK5, 0.5µM", "procedure": "as §1, §2, §3"}, "[1]": {"settings": "4hr RT preincubation, read-out: %Remaining activity at 0.5µM NU6300 - 4hr RT preincubation"}, "[2]": {"settings": "usual format, read-out: %Remaining activity at 0.5µM NU6300 - Usual assay format"}},
  "note": "Where two headings read alike, the source gives them in different places.",
  "data": [
    {"smiles": "C=CS(=O)(=O)c1ccc(Nc2nc(OCC3CCCCC3)c3nc[nH]c3n2)cc1", "note": "[NU6300, 6-(cyclohexylmethoxy)-N-(4-(vinylsulfonyl)phenyl)-9H-purin-2-amine]", "values": [
      {"measurement": "remaining activity at 1 µM", "setting": "CDK9-Cyclin T1", "value": 87, "unit": "%"},
      {"measurement": "remaining activity at 0.5 µM", "setting": "IRAK1; [1]", "value": 38, "unit": "%"},
      {"measurement": "remaining activity at 0.5 µM", "setting": "IRAK1; [2]", "value": 64, "unit": "%"},
      {"measurement": "remaining activity at 0.5 µM", "setting": "NUAK1; [1]", "value": 18, "unit": "%"},
      {"measurement": "remaining activity at 0.5 µM", "setting": "NUAK1; [2]", "value": 12, "unit": "%"},
      {"measurement": "remaining activity at 0.5 µM", "setting": "MARK1; [1]", "value": 38, "unit": "%"},
      {"measurement": "remaining activity at 0.5 µM", "setting": "MARK1; [2]", "value": 37, "unit": "%"},
      {"measurement": "remaining activity at 0.5 µM", "setting": "MST2; [1]", "value": 11, "unit": "%"},
      {"measurement": "remaining activity at 0.5 µM", "setting": "MST2; [2]", "value": 38, "unit": "%"},
      {"measurement": "additional loss of activity after pre-incubation", "setting": "MST2; Mst2, 4-hr pre-incubation vs usual format, 0.5 µM", "value": "> 50", "unit": "%"},
      {"measurement": "remaining activity at 0.5 µM", "setting": "Lck; [1]", "value": 60, "unit": "%"},
      {"measurement": "remaining activity at 0.5 µM", "setting": "Lck; [2]", "value": 67, "unit": "%"},
      {"measurement": "remaining activity at 0.5 µM", "setting": "CHK2; [1]", "value": 120, "unit": "%"},
      {"measurement": "remaining activity at 0.5 µM", "setting": "CHK2; [2]", "value": 55, "unit": "%"},
      {"measurement": "remaining activity at 0.5 µM", "setting": "PAK5; [1]", "value": 53, "unit": "%"},
      {"measurement": "remaining activity at 0.5 µM", "setting": "PAK5; [2]", "value": 76, "unit": "%"}
    ]}
  ]
}
